The values below come from PMC8252719, “Macrocyclic FKBP51 Ligands Define a Transient Binding Mode with Enhanced Selectivity” (Angewandte Chemie (International Ed. in English), 2021).

Where two headings read alike, the source gives them in different places.

For one experiment, the target named is FKBP12 (Homo sapiens, UniProt P62942). The experiment can be described thus: competitive fluorescence polarization assay, FKBP12. In kind it is binding. As to conditions: for Ki: competitive fluorescence polarization assay, >80 μM = highest measurable concentration before compound precipitation, ± = standard error from three independent measurements, read-out: FKBP12 K i.
Sequence of FKBP12 (P62942 whole entry): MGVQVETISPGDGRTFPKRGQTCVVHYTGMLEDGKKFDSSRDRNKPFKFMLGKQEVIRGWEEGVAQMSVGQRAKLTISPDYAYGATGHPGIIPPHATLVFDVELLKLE

Another experiment concerns the target FKBP12.6 (Homo sapiens, UniProt P68106). Briefly: competitive fluorescence polarization assay, FKBP12.6. The experiment is classed as binding. The conditions noted are these: for Ki: competitive fluorescence polarization assay, >80 μM = highest measurable concentration before compound precipitation, ± = standard error from three independent measurements, read-out: FKBP12.6 K i.

The test system of experiment [1] is IKKα phosphorylation in SIM-A9 cells. Briefly: IKKα inhibition in SIM-A9 cells (Western blot). The conditions noted are these: for dose-dependence of inhibition of IKKα phosphorylation / inhibition of IKKα phosphorylation (in words): murine microglia SIM-A9 cells, 16 h treatment, Western blot; for inhibition of IKKα phosphorylation (in words): three (macrocycles) or six (SAFit) independent cellular assays; for concentration at which apparent maximal inhibition of IKKα phosphorylation was already reached: SIM-A9 cells, lowest tested concentration. The experiment is classed as cell-based, murine. How it is done:
We next explored if the macrocyclic ligands could interfere with the cellular functions of FKBP51. We therefore treated SIM‐A9 cells, which were recently discovered as a SAFit‐sensitive cellular model for stress‐mediated secretory autophagy. ^[24] […] (Figure 2 F and S6C). […]
5.2 IKKα inhibition in SIM-A9 cells
Cell culture and treatments
Murine microglia SIM-A9 cells were cultured at 37 °C, 5% CO2 in Dulbecco's Modified Eagle Medium (DMEM) high glucose with GlutaMAX (Thermo Fisher Scientific, 10566016), supplemented with 1 mM sodium pyruvate (Thermo Fisher Scientific, 11360-070), 10% fetal bovine serum (PAN Biotech, P30-8500), and 1% antibiotic-antimycotic (Thermo Fisher Scientific, 15240-062).
For the preparation of whole-cell lysates, confluent SIM-A9 cell cultures treated with the indicated compounds for 16 h in the above mentioned growth medium, were washed two times with ice-cold DPBS (Thermo Fisher Scientific, 14190-144) and lysed in an appropriate volume of RIPA buffer (Thermo Fisher Scientific, 89901), freshly supplemented with 1x cOmplete™ EDTA-free protease inhibitor cocktail (Roche, 4693132001) and 1x PhosSTOP™ phosphatase inhibitor cocktail (Roche, 4906837001) for 20 min on ice.
Subsequently, samples were centrifuged for 10 min at 4°C at 13000 rpm. The resulting supernatants were transferred to new 1.5 ml reaction tubes and prepared for separation with an SDS-PAGE system and analyzed by immunoblotting.
SDS-PAGE and immunoblotting
Separation of proteins was performed with the Criterion™ Vertical Electrophoresis Cell System (Bio-Rad, 1656001) on 4–20% Criterion™ TGX™ Precast Midi Protein Gels (Bio-Rad, 5671095). Immunoblotting was performed with the Trans-Blot Turbo Transfer System (Bio-Rad, 1704150) on 0.2 µm PVDF Trans-Blot Turbo Transfer Membranes (Bio-Rad, 1704157). For immunodetection, membranes were placed in TBS, supplemented with 0.05% Tween (Sigma-Aldrich, P9416) and 5% non-fat milk (Carl Roth, T145.1) for 1 h at RT and then incubated with the primary antibody diluted in TBS-T overnight at 4°C. Following primary antibodies were used:
Phospho-IKKα S176/phospho-IKKβ S177 (1:1000, Cell Signaling Technology, 2078), IKKα (1:1000, Cell Signaling Technology, 1682) and GAPDH (1:1000, Cell Signaling Techology, 5174).
Then, immunoblots were washed and probed with horseradish peroxidase- conjugated secondary antibody (1:10000, Cell Signaling Technology, 7074) for 1 h at RT. Immunoreactive protein bands were visualized using Clarity Western ECL Substrate (Bio-Rad, 1705061) or Clarity Max Western ECL Substrate (Bio-Rad, 1705062). Determination of the band intensities was performed with […]
Background: In western blotting, separated proteins are transferred to a membrane and probed.

Experiment [2] addresses T1, FKBP51FK1 (Homo sapiens, UniProt Q13451).
T1 sequence (Q13451 42-130 limits assumed): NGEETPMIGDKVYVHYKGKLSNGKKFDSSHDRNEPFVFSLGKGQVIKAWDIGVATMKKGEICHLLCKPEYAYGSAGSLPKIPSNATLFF
The experiment can be described thus: competitive fluorescence polarization assay, FKBP51FK1. In kind it is binding. As to conditions: ± = standard error from three independent measurements [b] or error from two independent measurements [d], read-out: FKBP51FK1 K i. The method, then:
Table S1. Ki values were determined by a competitive fluoresc ence polarization assay.
4.1 Binding curves of 13a, c and d […]

Experiment [3] has as its target T1, FKBP51FK1. Briefly: isothermal titration calorimetry (ITC). In kind it is binding. How it is done:
1. ITC of compounds 13a and 13d
Figure S1. A) Binding of compound 13a to FKBP51FK1 determined by isothermal titration calorimetry at 25 °C. A 20 µM solution FKBP51FK1 formulated in 20 mM
HEPES pH 8.0, 20 mM NaCl, 5% glycerol and 2% DMSO was placed in the sample cell of a PEAK-ITC instrument. The syringe was filled with a 200 µM solution of
13a formulated in the same buffer. After equilibration the compound was titrated into the sample cell by 12 injection s of 3 µl each. The obtained data was analyzed
Binding of compound 13d to FKBP51FK1 determined by isothermal titration calorimetry at 25 °C. A 13 µM solution FKBP51FK1 formulated in 20 mM HEPES pH
8.0, 20 mM NaCl, 5% glycerol and 2% DMSO was placed in the sample cell of a PEAK -ITC instrument. The syringe was filled with a 10 0 µM solution of 13d
formulated in the same buffer. After equilibration the compound was titrated into the sample cell by 12 injections of 3 µl each. The obtained data was analyzed using […]
On the technique in general: Isothermal titration calorimetry measures the heat released or taken up as one component is titrated into another.

Where [4] appears, read: fluorescence polarization assay.

Sequence of FKBP12.6 (P68106 whole entry): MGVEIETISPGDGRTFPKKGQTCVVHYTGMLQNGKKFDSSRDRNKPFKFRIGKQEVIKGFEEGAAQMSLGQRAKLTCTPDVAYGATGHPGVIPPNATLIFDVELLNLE

Take `COc1ccc(CC[C@H]2OC(=O)[C@@H]3CCCCN3C(=O)[C@@H](C3CCCCC3)NC(=O)[C@H]3CCCN3C(=O)COc3cccc2c3)cc1OC` [13 i, (9R,12R,19S,22R)-12-cyclohexyl-22-[2-(3,4-dimethoxyphenyl)ethyl]-2,21-dioxa-5,11,14-triazatetracyclo[21.3.1.0⁵,⁹.0¹⁴,¹⁹]heptacosa-1(26),23(27),24-triene-4,10,13,20-tetrone]: the Ki on FKBP12 was above 80 µM. For the same compound, the Ki at FKBP12.6 is above 80 µM. Also, in experiment [1], the “dose-dependence of inhibition of IKKα phosphorylation” value is “clear dose‐dependence” and the “inhibition of IKKα phosphorylation (in words)” value (shortened to “inhibition … (in words)”) is “inhibited”.
On to `COc1ccc(CC[C@H]2OC(=O)[C@@H]3CCCCN3C(=O)[C@@H](C3CCCCC3)NC(=O)C(C)(C)NC(=O)COc3cccc2c3)cc1OC` [13 c], for which the Ki at FKBP51FK1 [2] (SEM) was 0.29 ± 0.05 µM; on FKBP12 it was above 80 µM; at FKBP12.6, above 80 µM. The “concentration at which apparent maximal inhibition of IKKα phosphorylation was already reached” value in experiment [1] is at most 1 µM. Further, in experiment [1], the “inhibition … (in words)” value is on record as “inhibited”.
With `COc1ccc(CC[C@H]2OC(=O)[C@@H]3CCCCN3C(=O)[C@@H](C3CCCCC3)NC(=O)CNC(=O)COc3cccc2c3)cc1OC` [13 a], the values for the Ki on FKBP51FK1 [2] (SEM), at FKBP12 and on FKBP12.6 were 2.3 ± 0.05 µM, above 80 µM and above 80 µM, respectively. Further, the Kd came to 3.6 ± 0.9 µM at FKBP51FK1 [3] (25 °C, 20 mM HEPES pH 8.0, 20 mM NaCl, 5% glycerol, 2% DMSO, one-site binding model, mean ± SD from 3 independent experiments, SD, read-out: Kd-value for FKBP51FK1 by ITC) and 3.6 µM at FKBP51FK1 [3] (isothermal calorimetry, enthalpy-driven, read-out: K d for FKBP51 by ITC).
`COc1ccc(CC[C@H]2OC(=O)[C@@H]3CCCCN3C(=O)[C@@H](C3CCCCC3)NC(=O)C3(CCCC3)NC(=O)COc3cccc2c3)cc1OC` [13 f]: the Ki is 1.3 µM at FKBP51FK1 [2], above 80 µM on FKBP12 and above 80 µM on FKBP12.6.
In the case of `COc1ccc(CC[C@H]2OC(=O)[C@@H]3CCCCN3C(=O)[C@@H](C3CCCCC3)NC(=O)CCNC(=O)COc3cccc2c3)cc1OC` [13 l], the Ki on FKBP51FK1 [2] was 7.4 µM; at FKBP12, above 80 µM; at FKBP12.6, above 80 µM.
`COc1ccc(CC[C@H]2OC(=O)[C@@H]3CCCCN3C(=O)[C@@H](C3CCCCC3)NC(=O)[C@@H]3CCCN3C(=O)COc3cccc2c3)cc1OC` [13 k, (9S,12R,19S,22R)-12-cyclohexyl-22-[2-(3,4-dimethoxyphenyl)ethyl]-2,21-dioxa-5,11,14-triazatetracyclo[21.3.1.0⁵,⁹.0¹⁴,¹⁹]heptacosa-1(26),23(27),24-triene-4,10,13,20-tetrone]: the Ki at FKBP12 and at FKBP12.6 was above 80 µM in each case.
For the compound `COc1ccc(CC[C@H]2OC(=O)[C@@H]3CCCCN3C(=O)[C@@H](C3CCCCC3)NC(=O)CN(C)C(=O)COc3cccc2c3)cc1OC` [13 g], the Ki at FKBP51FK1 [2] is 3.1 µM; on FKBP12 it was above 80 µM; at FKBP12.6, above 80 µM.
Take `COc1ccc(CC[C@H]2OC(=O)[C@@H]3CCCCN3C(=O)[C@@H](C3CCCCC3)NC(=O)C(C)(C)N(C)C(=O)COc3cccc2c3)cc1OC` [13 h]: the values for the Ki at FKBP51FK1 [2], at FKBP12 and on FKBP12.6 were 0.37 µM, above 80 µM and above 80 µM, respectively. The “concentration at which apparent maximal inhibition of IKKα phosphorylation was already reached” value in experiment [1] is at most 1 µM. Besides, the “inhibition … (in words)” value in experiment [1] is given as “inhibited”.
As for `COc1ccc(CC[C@H]2OC(=O)[C@@H]3CCCCN3C(=O)[C@@H](C3CCCCC3)NC(=O)C3(CCC3)NC(=O)COc3cccc2c3)cc1OC` [13 e], the Ki on FKBP51FK1 [2] was 0.4 µM; on FKBP12 it was above 80 µM; on FKBP12.6, above 80 µM. For the same compound, in experiment [1], the “dose-dependence of inhibition of IKKα phosphorylation” value is recorded as “clear dose‐dependence”. Further, the “inhibition … (in words)” value in experiment [1] was “inhibited”.
`COc1ccc(CC[C@H]2OC(=O)[C@@H]3CCCCN3C(=O)[C@@H](C3CCCCC3)NC(=O)[C@H](C)NC(=O)COc3cccc2c3)cc1OC` [13 j, (2R,5S,12R,15S)-12-cyclohexyl-2-[2-(3,4-dimethoxyphenyl)ethyl]-15-methyl-3,19-dioxa-10,13,16-triazatricyclo[18.3.1.0⁵,¹⁰]tetracosa-1(24),20,22-triene-4,11,14,17-tetrone]: the Ki on FKBP12 and at FKBP12.6 was above 80 µM each time.
For the compound `COc1ccc(CC[C@H]2OC(=O)[C@@H]3CCCCN3C(=O)[C@@H](C3CCCCC3)NC(=O)[C@@H](C)NC(=O)COc3cccc2c3)cc1OC` [13 b, (2R,5S,12R,15R)-12-cyclohexyl-2-[2-(3,4-dimethoxyphenyl)ethyl]-15-methyl-3,19-dioxa-10,13,16-triazatricyclo[18.3.1.0⁵,¹⁰]tetracosa-1(24),20,22-triene-4,11,14,17-tetrone], the Ki at FKBP12 and on FKBP12.6 was above 80 µM throughout.
Regarding `COc1ccc(CC[C@@H](OC(=O)[C@@H]2CCCCN2C(=O)[C@H](c2cc(OC)c(OC)c(OC)c2)C2CCCCC2)c2cccc(OCC(=O)O)c2)cc1OC` [SAFit1, reference compound], the results for the Ki at FKBP51FK1 [2] (SEM), on FKBP12 (SEM) and at FKBP12.6 (SEM) were 0.004 ± 0.001 µM, 0.163 ± 0.009 µM and 0.019 ± 0.002 µM, respectively. For the same compound, in experiment [1], the “dose-dependence of inhibition of IKKα phosphorylation” value is “clear dose‐dependence”. The “inhibition … (in words)” value in experiment [1] is listed as “inhibited”.
As for `COc1ccc(CC[C@@H](OC(=O)[C@@H]2CCCCN2C(=O)[C@H](c2cc(OC)c(OC)c(OC)c2)C2CCCCC2)c2cccc(OCCN3CCOCC3)c2)cc1OC` [SAFit2, reference compound], in experiment [1], the “dose-dependence of inhibition of IKKα phosphorylation” value is “clear dose‐dependence” and the “inhibition … (in words)” value is reported as “inhibited”.
In the case of `COc1ccc(CCC2OC(=O)C3CCCCN3C(=O)C(C3CCCCC3)CC(O)C(O)COCCOc3cccc2c3)cc1OC` (mixture of isomers) [9 g], the Ki on FKBP51FK1 [2] amounted to 1.2 µM. In addition, the “binding to FKBP12 (in words)” value on FKBP12 (setting [4]) is on record as “did not bind”. In addition, the “binding to FKBP12.6 (in words)” value on FKBP12.6 (setting [4]) was “did not bind”.
